From PubChem BioAssay AID179 (DTP/NCI, 2004) come the findings set out here.

Activity calls are given as the source filed them.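 How the source made its calls: active means compounds giving half or more protection of infected cells from virus-caused growth loss, again on retest; inactive means the rest.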

This assay relates to CEM cells HIV-1 protection, formazan growth assay. The assay is described as follows: NCI AIDS Antiviral Assay. As to conditions: for IC50: measured here: growth of uninfected CEM cells. The procedure, abridged: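 Category rules: moderately active means at least 50% protection on retest, and confirmed active means 100% protection reproducibly. The underlying data came from a formazan growth assay in HIV-1-infected CEM cells.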

Regarding `COc1c(O)c2c(=O)cc(OC)c3c4c(OC)cc(=O)c5c(O)c(OC)c6c(c(c1C(C(C)=O)C6C(C)O)c23)c54` (configuration not stated), the EC50 was greater than 20 µM and the IC50 turned out to be 0.316 µM. `O=C(O)C(=O)CC(=O)c1ccc(Br)cc1`: the EC50 was greater than 200 µM.

As to `CCCCCCCCCCCCCCCCOP(=O)(O)OCCC=C(c1cc(Cl)c(O)c(C(=O)O)c1)c1cc(Cl)c(O)c(C(=O)O)c1`, the EC50 is greater than 145 µM and the IC50 was 93.3 µM. For `Nc1ccc(SSc2ccc(Nc3ccnc4cc(Cl)ccc34)cc2)cc1`, in that order: greater than 200 µM and 5.01 µM. As for `Cc1c(-c2nnc(-c3ccc(Cl)cc3)o2)c(=O)n(-c2ccccc2)n1C`, the EC50 is greater than 200 µM and the IC50 is greater than 200 µM. For the molecule `O=S1(=O)OC(c2ccc(O)c(Cl)c2)(c2ccc(O)c(Cl)c2)c2ccccc21`, the outcome was inactive. Turning to `N#Cc1nc(CSCc2ccccc2)oc1N`, the EC50 was greater than 200 µM and the IC50 worked out at 117 µM. On the same counts, the results for `O=NN1C(c2ccccc2)C2CCCC(C2=O)C1c1ccccc1` (configuration not stated) are greater than 58.9 µM and greater than 58.9 µM.

Take `CC1=NN(C(=O)c2ccccc2O)C(=O)/C1=C/c1ccco1`: the EC50 is greater than 87.1 µM and the IC50 is 0.603 µM. For `O=C1c2cccc3cccc(c23)C(=O)N1CCCN1C(=O)c2cccc3cccc(c23)C1=O`, in that order: greater than 200 µM and 110 µM.

As for `Cn1nc(-c2ccccc2)c(C(=O)/C=C/c2ccc(Cl)cc2)c(N2CCCCC2)c1=O`, the EC50 is greater than 17.8 µM and the IC50 is greater than 17.8 µM. As to `Fc1ccc(C2NC(c3ccc(Cl)cc3)c3cccn3-c3sccc32)cc1` (configuration not stated), the EC50 was greater than 100 µM and the IC50 is 79.4 µM. Regarding `O=C(O[C@H]1[C@@H]2C=CO[C@@H](OC3OC(CO)C(O)C(O)C3O)[C@@H]2[C@@]2(CO)O[C@@H]12)c1ccc(O)c(O)c1` (some centres not stated), the outcome was inactive. On to `CC(C)C1CC(CO)(CNc2nc(N)nc(Cl)c2C=O)C1` (configuration not stated), for which the EC50 was greater than 200 µM and the IC50 worked out at 1.78 µM. Take `CN(C(=O)C12C3C4C1C1C2C3C41C(O)C(C)(C)C)C(C)(C)C` (configuration not stated): the EC50 was greater than 117 µM and the IC50 was greater than 117 µM. Turning to `Cc1cc2c(=O)c3ccc(Cl)cc3[nH]c2c(C(N)=O)c1C`, the result was inactive. Consider `COC(=O)c1cc(C(=CCC[C@H]2CC[C@@]3(C)C(CC[C@@H]4C3CC[C@@]3(C)C4CC[C@@H]3[C@H](C)CCCC(C)C)C2)c2cc(Cl)c(OC)c(C(=O)OC)c2)cc(Cl)c1OC` (some centres not stated), for which the EC50 is greater than 15.8 µM and the IC50 was greater than 15.8 µM. In the case of `CCN(CC)CCNc1cccc2oc3ccc(OS(=O)(=O)c4ccc(C)cc4)cc3c(=O)c12`, the EC50 was greater than 15.1 µM and the IC50 was found to be 6.31 µM. For `Cc1ccc(C)c(NC(=O)/C(=N\N)C(c2cnc3ccc([N+](=O)[O-])cc3n2)[N+](=O)[O-])c1` (configuration not stated), in that order: greater than 589 µM and 219 µM. On to `Cn1c(CCN=C(N)CSS(=O)(=O)O)nc2ccccc21`, for which the EC50 is greater than 200 µM and the IC50 was 174 µM. On the same counts, the results for `CN1CCc2c(sc3nc(Nc4ccccc4)n(N)c(=O)c23)C1` are greater than 200 µM and 93.3 µM. For `O=C(c1ccc(Cl)cc1)N(C(=S)N1CCN(c2ccccc2)CC1)c1ccccc1`, in that order: greater than 12 µM and 11.2 µM.

Regarding `C[C@]12CC[C@H](O)CC1=CC[C@@H]1C2CC[C@]2(C)NC(=O)C(C#N)CC12` (some centres not stated), the outcome was inactive. Regarding `Cc1cc(S(=O)(=O)Nc2nc(N)nc(N3N=CCC3C)n2)c(S)cc1Cl` (configuration not stated), the EC50 is 55 µM and the IC50 is greater than 200 µM.

On to `COC(=O)CCCc1c(-c2[nH]c3ccccc3c2CCCC(=O)OC)[nH]c2ccccc12`, for which the EC50 is greater than 200 µM and the IC50 is greater than 200 µM. For the molecule `CN1C(=O)N/C(=C\c2ccc(S(=O)(=O)NN)cc2)C1=O`, the EC50 is greater than 200 µM and the IC50 was greater than 100 µM. On the same counts, the results for `O=C1CCC(N2C(=O)C3CC=CCC3C2=O)C(=O)N1` (configuration not stated) are greater than 200 µM and greater than 200 µM.

Consider `CC(C)CCC[C@@H](C)[C@H]1CC[C@H]2[C@@H]3CCC4C[C@@H](CCC=C(c5cc(Cl)c(OCc6ccccc6C(=O)O)c(C(=O)O)c5)c5cc(Cl)c(OCc6ccccc6C(=O)O)c(C(=O)O)c5)CC[C@]4(C)[C@H]3CC[C@]12C` (some centres not stated), for which the EC50 is 44.7 µM and the IC50 was greater than 200 µM. On to `COc1ccc(N=C/C=C/c2ccccc2)cc1`, for which the EC50 was greater than 21.9 µM and the IC50 is greater than 21.9 µM. As for `Cn1cnc2nc3ncn(C)c3cc21`, the EC50 is greater than 200 µM and the IC50 is greater than 200 µM. As for `CCc1c(C)c(C#N)c(=S)n(C2OC(COC(C)=O)C(OC(C)=O)C(OC(C)=O)C2OC(C)=O)c1-c1ccccc1` (configuration not stated), the EC50 is greater than 200 µM and the IC50 was determined as 102 µM. On the same counts, the results for `CC(=O)NC(CCCNCc1ccccc1)C(=O)NCc1ccccc1` (configuration not stated) are greater than 708 µM and greater than 708 µM.

On to `NCCCOCC(=O)O`, for which the result was inactive. With `COc1cc2c(cc1OC)C(CCl)c1cc(OC)c(OC)cc1C=C2`, the EC50 was greater than 100 µM and the IC50 is greater than 100 µM.

Turning to `CC1OC(OC2C(CO)OC(O[C@H]3CC[C@@]4(C)C(=CC[C@H]5[C@@H]6C[C@@H]7O[C@](O)(CC[C@H](CO)COC8OC(CO)C(O)C(O)C8O)[C@@H](C)[C@@H]7[C@@]6(C)CC[C@@H]54)C3)C(OC3OC(C)C(O)C(O)C3O)C2O)C(O)C(O)C1O` (some centres not stated), the EC50 was greater than 200 µM and the IC50 was greater than 200 µM. Take `OCC1(CNc2cc(Cl)ncn2)CCC1`: the EC50 is greater than 200 µM and the IC50 is greater than 200 µM. Turning to `CC1CCN(C(C)(C)C)P(=O)(Cc2ccccc2)O1` (configuration not stated), the outcome was inactive. In the case of `COC(=O)C1(C)CCCC2(C)C3CC(CO)C(C(C)C)CC3CCC12` (configuration not stated), the EC50 was greater than 200 µM and the IC50 was greater than 200 µM. On to `CC(C1=CC(=O)c2c(O)ccc(O)c2C1=O)C1=CC(=O)c2c(O)ccc(O)c2C1=O`, for which the result was inactive.

With `CCCCc1c2c(nc3c1CCC/C3=C\c1ccccc1)C(=O)C(CN(C)C)CC2` (configuration not stated), the EC50 is greater than 9.33 µM and the IC50 was greater than 9.33 µM. With `CCOC(=O)c1sc2c(C(=O)OCC)n3cc(C)cc(C)c3c2c1O`, the result was inactive. As to `C=CCCCCCCCCCCCC1CCC(CC)N1` (configuration not stated), the EC50 is greater than 240 µM and the IC50 is greater than 240 µM. `CC(NC(=O)C1CCCN1C(=O)OCc1ccccc1)C(=O)O` (configuration not stated): the EC50 was greater than 776 µM and the IC50 was greater than 776 µM. `Clc1c(Cl)c(Cl)c2nn(C3CCCO3)nc2c1Cl` (configuration not stated): the EC50 was greater than 200 µM and the IC50 came out at 39.8 µM. For `O=[N+]([O-])c1ccccc1S(=O)(=O)Oc1ccccc1`, the EC50 was greater than 77.6 µM and the IC50 is 47.9 µM. On to `CCOC(=O)C1C2c3ccccc3C(c3ccccc32)C1C(=O)OCC` (configuration not stated), for which the EC50 was greater than 200 µM and the IC50 was greater than 200 µM. Regarding `O=C(O)\C=C/C=C/C=C/C=C/C(=O)O`, the EC50 was 126 µM and the IC50 worked out at 135 µM. On the same counts, the results for `[N-]=[N+]=CC(=O)C1CCCN1C(=O)c1ccccc1` (configuration not stated) are greater than 200 µM and greater than 200 µM.

`CC(NC(=O)OC(C)(C)C)C(=O)NC(Cc1ccccc1)C(=O)NCC(=O)ON=C1CCCC1` (configuration not stated): the EC50 is greater than 200 µM and the IC50 turned out to be 25.7 µM. On the same counts, the results for `CC(C)(C)SSCC(N)C(=O)O` (configuration not stated) are greater than 200 µM and greater than 200 µM.

Regarding `CC(=O)c1cccc(NCn2nnc3ccccc32)c1`, the EC50 was greater than 200 µM and the IC50 amounted to 95.5 µM. Take `O=C(Nc1ccn(CCO)c(=O)n1)c1ccccc1`: the EC50 was greater than 692 µM and the IC50 was greater than 692 µM.

`CC[N+]1(CC)CC[N+]2(CCCC(C)CC2)CC1` (configuration not stated): the result was inactive. Turning to `COc1ccc(C2C3=C(COC3=O)OC(C)(C)Oc3cc4c(cc32)OCO4)cc1OC` (configuration not stated), the EC50 is greater than 200 µM and the IC50 is 12.3 µM. For `COc1ccc(C2(C3c4cc(OC)c(OC)cc4CCN3C)SCCCS2)cc1O` (configuration not stated), in that order: greater than 200 µM and 151 µM. Take `NC(=O)CNC(=O)[C@@H]1C[C@@H](OCCC(=O)O)CN1C(=O)OCc1ccccc1`: the EC50 is greater than 200 µM and the IC50 is greater than 200 µM. As to `COC(=O)c1ncc2c(=O)[nH]c3ccccc3c2c1C(=O)OC`, the EC50 is greater than 16.6 µM and the IC50 is greater than 16.6 µM.

Turning to `CC(C)(Cc1ccccc1)Cc1cc(O)ccc1O`, the EC50 was 1.29 µM and the IC50 was determined as 7.24 µM. On the same counts, the results for `COc1cccc2c1C1(O)C2CCCCCCCCCC12OCCCO2` (configuration not stated) are greater than 91.2 µM and 69.2 µM. As for `CCOC(=O)Nc1cc2c(c(N)n1)N=C(c1ccc(OC)cc1)CN2`, the EC50 was greater than 11 µM and the half-maximal inhibitory concentration (IC50) worked out at 0.224 µM. For `O=NNc1ccc(Sc2ccc(NN=O)cn2)nc1`, in that order: greater than 100 µM and greater than 100 µM.

Consider `Cc1cc([N+](=O)[O-])ccc1NC(=O)C(=O)C(C(=O)c1ccccc1-c1ccccc1)C1OC(=O)c2ccccc21` (configuration not stated), for which the EC50 was greater than 178 µM and the IC50 was 28.2 µM. For `O=C(c1ccc(Cl)cc1)N(C(=O)N1CCC(c2ccccc2)CC1)c1ccccc1`, in that order: greater than 200 µM and 11.2 µM.

`C=C1CC(C)(COc2ccc3c(C)cc(=O)oc3c2)OC1=O` (configuration not stated): the EC50 is greater than 20 µM and the IC50 came to 0.501 µM. For `O=C(N=c1ccc2nc(=O)[nH]n(O)c-2c1)C(F)(F)F`, in that order: greater than 200 µM and 186 µM. For `CC1(C)SSC(C)(C)SS1`, in that order: greater than 200 µM and greater than 200 µM. In the case of `CC(=O)C1=C(O)CCC1=O`, the EC50 was greater than 200 µM and the IC50 was greater than 200 µM. In the case of `CC(=O)n1c(O)c(N=Nc2ccccc2[N+](=O)[O-])c2ccccc21`, the EC50 was greater than 200 µM and the IC50 was greater than 200 µM. As to `NCCc1ccc(O)c(O)c1`, the EC50 is greater than 200 µM and the IC50 came out at 132 µM. As to `Cc1cc(C2CC(O)C(CO)O2)c(F)cc1F` (configuration not stated), the EC50 is greater than 200 µM and the IC50 is greater than 200 µM. For the molecule `O=C(Cn1c(=O)sc2ccc(Cl)cc21)N1CCN(CCO)CC1`, the EC50 is greater than 200 µM and the IC50 was greater than 200 µM.
